Tested on: Soybean
Assay: Metribuzin phytotoxicity screen of soybean lines in greenhouse pots
Format: in vivo, Glycine max
Conditions: applied after planting, scored 16 days later
Text: In the case of a visual metribuzin sensitivity detection system, a plant is rated for the percent of visual toxicity compared to a control plant which is sensitive to metribuzin.
Soybean seeds were planted two seeds per pot in two inch pots with clay loam soil (1.36 o.m.). Six replications were arranged in a Randomized Complete Block Design in a greenhouse. Metribuzin was applied at 560 grams active ingredient per hectare after planting. Sixteen days later plants were scored for visual phytotoxicity scored as percent injury.

Structure (SMILES): CSc1nnc(C(C)(C)C)c(=O)n1N [Metribuzin, metribuzin]
- Injury (%) @ 560 g ai/ha (soybean line A1036478): 0%
- Injury (%) @ 560 g ai/ha (soybean line AR1111926): 20%
- Injury (%) @ 560 g ai/ha (soybean line AR1112922): 0%
- Injury (%) @ 560 g ai/ha (soybean line AR1210100): 15%
- Injury (%) @ 560 g ai/ha (soybean line AR1210104): 45%
- Injury (%) @ 560 g ai/ha (soybean line AR1210856): 9%
- Injury (%) @ 560 g ai/ha (soybean line AR1210886): 0%
- Injury (%) @ 560 g ai/ha (soybean line AR1211262): 0%
- Injury (%) @ 560 g ai/ha (soybean line AR1211948): 44%
- Injury (%) @ 560 g ai/ha (soybean line BK1011572): 23%
- Injury (%) @ 560 g ai/ha (soybean line BK1211980): 17%
- Injury (%) @ 560 g ai/ha (soybean line BY1210428): 54%
- Injury (%) @ 560 g ai/ha (soybean line BY1211100): 49%
- Injury (%) @ 560 g ai/ha (soybean line BY1212083): 0%
- Injury (%) @ 560 g ai/ha (soybean line BY1212201): 3%
- Injury (%) @ 560 g ai/ha (soybean line BY1212223): 0%
- Injury (%) @ 560 g ai/ha (soybean line BY1213080): 0%
- Injury (%) @ 560 g ai/ha (soybean line CC1210319): 0%
- Injury (%) @ 560 g ai/ha (soybean line CC1211481): 12%
- Injury (%) @ 560 g ai/ha (soybean line CC1211818): 0%
- Injury (%) @ 560 g ai/ha (soybean line CC1212005): 35%
- Injury (%) @ 560 g ai/ha (soybean line CC1215412): 0%
- Injury (%) @ 560 g ai/ha (soybean line CC1215903): 0%
- Injury (%) @ 560 g ai/ha (soybean line CC1215927): 45%
- Injury (%) @ 560 g ai/ha (soybean line CC1217018): 0%
- Injury (%) @ 560 g ai/ha (soybean line CC1217019): 0%
- Injury (%) @ 560 g ai/ha (soybean line CE1210923): 0%
- Injury (%) @ 560 g ai/ha (soybean line CE1210997): 0%
- Injury (%) @ 560 g ai/ha (soybean line CE1211033): 37%
- Injury (%) @ 560 g ai/ha (soybean line CE1211109): 0%
- Injury (%) @ 560 g ai/ha (soybean line CE1211211): 14%
- Injury (%) @ 560 g ai/ha (soybean line CE1211264): 28%
- Injury (%) @ 560 g ai/ha (soybean line CE1211339): 0%
- Injury (%) @ 560 g ai/ha (soybean line CE1211377): 0%
- Injury (%) @ 560 g ai/ha (soybean line CE1211403): 0%
- Injury (%) @ 560 g ai/ha (soybean line CE1211693): 0%
- Injury (%) @ 560 g ai/ha (soybean line CE1212024): 0%
- Injury (%) @ 560 g ai/ha (soybean line CE1213779): 38%
- Injury (%) @ 560 g ai/ha (soybean line CE1214014): 47%
- Injury (%) @ 560 g ai/ha (soybean line CE1214443): 0%
- Injury (%) @ 560 g ai/ha (soybean line CE1214602): 0%
- Injury (%) @ 560 g ai/ha (soybean line CE1214610): 47%
- Injury (%) @ 560 g ai/ha (soybean line G01010146): 0%
- Injury (%) @ 560 g ai/ha (soybean line GO1110272): 54%
- Injury (%) @ 560 g ai/ha (soybean line GO1110602): 53%
- Injury (%) @ 560 g ai/ha (soybean line LL511): 92%
- Injury (%) @ 560 g ai/ha (soybean line LL513N): 2%
- Injury (%) @ 560 g ai/ha (soybean line LL563N): 5%
- Injury (%) @ 560 g ai/ha (soybean line LL595N): 96%
- Injury (%) @ 560 g ai/ha (soybean line NE0912640): 0%
- Injury (%) @ 560 g ai/ha (soybean line NE1212391): 0%
- Injury (%) @ 560 g ai/ha (soybean line NE1214412): 5%
- Injury (%) @ 560 g ai/ha (soybean line NE1214737): 0%
- Injury (%) @ 560 g ai/ha (soybean line NE1215099): 0%
- Injury (%) @ 560 g ai/ha (soybean line OW1011073): 11%
- Injury (%) @ 560 g ai/ha (soybean line OW1011829): 50%
- Injury (%) @ 560 g ai/ha (soybean line OW1012353): 17%
- Injury (%) @ 560 g ai/ha (soybean line OW1113014): 34%
- Injury (%) @ 560 g ai/ha (soybean line OW1210742): 45%
- Injury (%) @ 560 g ai/ha (soybean line OW1212626): 25%
- Injury (%) @ 560 g ai/ha (soybean line OW1213195): 28%
- Injury (%) @ 560 g ai/ha (soybean line OW1213207): 28%
- Injury (%) @ 560 g ai/ha (soybean line OW1213282): 23%
- Injury (%) @ 560 g ai/ha (soybean line OW1213323): 42%
- Injury (%) @ 560 g ai/ha (soybean line S77-T7): 23%
- Injury (%) @ 560 g ai/ha (soybean line S78-G6): 10%
- Injury (%) @ 560 g ai/ha (soybean line SJ1114205): 0%
- Injury (%) @ 560 g ai/ha (soybean line SJ1210059): 0%
- Injury (%) @ 560 g ai/ha (soybean line SJ1210512): 11%
- Injury (%) @ 560 g ai/ha (soybean line SJ1210526): 0%
- Injury (%) @ 560 g ai/ha (soybean line SJ1210678): 0%
- Injury (%) @ 560 g ai/ha (soybean line SJ1210829): 0%
- Injury (%) @ 560 g ai/ha (soybean line SJ1210844): 0%
- Injury (%) @ 560 g ai/ha (soybean line SJ1210862): 0%
- Injury (%) @ 560 g ai/ha (soybean line SJ1210867): 25%
- Injury (%) @ 560 g ai/ha (soybean line SJ1211190): 55%
- Injury (%) @ 560 g ai/ha (soybean line SJ1212283): 0%
- Injury (%) @ 560 g ai/ha (soybean line SJ1213014): 0%
- Injury (%) @ 560 g ai/ha (soybean line SJ1213512): 0%
- Injury (%) @ 560 g ai/ha (soybean line SJ1213805): 48%
- Injury (%) @ 560 g ai/ha (soybean line WN1116259): 0%
- Injury (%) @ 560 g ai/ha (soybean line WN1118256): 47%
- Injury (%) @ 560 g ai/ha (soybean line WN1118297): 0%

— patent US10667478B1, “Metribuzin tolerance alleles in soybean” (Syngenta Participations AG, priority 2017, dated 2020)
